# Legend:
# SAPAP3 knockout mice [1] = experiment: Videotaped grooming behaviour scoring after Fluoxetine treatment; format: in vivo, mouse; settings: 5 mg/kg daily intraperitoneal, after six days, vs SAPAP3 knockout vehicle control group
# Description: To ascertain the source of the lesions quantitative, video studies of the knockout mice were performed. Groups of 10 wild type mice and 10 knockout mice were housed such that each mouse was isolated in a single cage. Following an acclimatization period to individual housing, each mouse was videotaped for 24 hours. Three, four-hour sections (10 AM-2 PM, 6 PM-10 PM, and 2 AM-6 AM) of each 24-hour period were watched and scored for a panel of behaviors: grooming, drinking/eating, sleeping, rearing, digging/shifting, or alert/active. When analyzed on either a “time spent” or “number of bouts engaged in” basis, it was obvious that SAPAP3 knockout mice groomed far more than their wild type counterparts in every time period examined (see FIGS. 3 and 4).
# Two cohorts of eight SAPAP3 knockout mice and two cohorts of eight wild type mice were housed in isolation and allowed to acclimate as in Example 2. One cohort of each genotype served as an experimental group and the other as a vehicle control group. The experimental groups were given a daily intraperitoneal injection of 5 mg/kg Fluoxetine for fourteen days. The control groups were given a daily vehicle injection under the same conditions.
# After six days, mice from each group were individually videotaped and their behaviors scored as in Example 2. […]
# SAPAP3 knockout mice [2] = experiment: Light-dark box emergence test after Fluoxetine treatment; format: in vivo, mouse; settings: after 6 days of treatment with 5 mg/kg, intraperitoneal
# SAPAP3 knockout mice [3] = experiment: Semi-quantitative scoring of lesion severity (scale 0-4); format: in vivo, mouse
# Description: Four cohorts of eight SAPAP3 knockout mice and four cohorts of eight wild type mice were housed in isolation and allowed to acclimate as above. One cohort of each genotype served as a 5 mg/kg Fluoxetine experimental group, one as a 10 mg/kg Fluoxetine experimental group, one as a vehicle control group, and one as an uninjected control group.
# SAPAP3 knockout animals = settings: mouse, in vivo, 10 mg/kg
# [4] = share of SAPAP3 KO mice, Fluoxetine groups (5 and 10 mg/kg) combined, at two weeks
smiles,measurement,setting,value
CNCCC(Oc1ccc(C(F)(F)F)cc1)c1ccccc1 (stereo not shown) [Fluoxetine],bouts of grooming,SAPAP3 knockout mice [1],far fewer bouts of grooming
same,performance on the light-dark box emergence test (latency to leave dark chamber),SAPAP3 knockout mice [2],significantly improved
same,lesion severity (scale of 0-4),"SAPAP3 knockout mice [3]; SAPAP3 knockout mice, 5 and 10 mg/kg groups combined vs vehicle and uninjected groups combined, over a 2 week period",stabilized or improved lesions
same,Lesion severity: Improve,SAPAP3 knockout mice [3]; [4],28.6%
same,Lesion severity: No Change,SAPAP3 knockout mice [3]; [4],71.4%
same,Lesion severity: Worse,SAPAP3 knockout mice [3]; [4],0%
same,toxicity to SAPAP3 knockout animals relative to wild type controls,SAPAP3 knockout animals,progressively more toxic

# — patent US20080113915A1, “SAPAP3 knockout mouse and clinical modeling associated with the SAPAP3 gene” (Duke University, priority 2006, published 2008)
